Experimental data: patent publication US5869476A, “Pyrimidinone derivatives” (Boryung Pharmaceutical Co., Ltd., priority 1994, dated 1999)

The compounds below were run against T1, angiotensin II receptor (Oryctolagus cuniculus, UniProt P34976) (assay: inhibition of angiotensin II induced contraction of isolated rabbit aorta rings). Settings: test compound incubated 20 minutes, 37° C., pH 7.4, read-out: IC50 (concentration being required to inhibit angiotensin II induced contraction by 50%).
T1 construct: The aorta was cut into 3~4 mm to form ring samples; from tissue; host or cells: isolated aorta rings of New Zealand White rabbits
T1 sequence (P34976 1-359): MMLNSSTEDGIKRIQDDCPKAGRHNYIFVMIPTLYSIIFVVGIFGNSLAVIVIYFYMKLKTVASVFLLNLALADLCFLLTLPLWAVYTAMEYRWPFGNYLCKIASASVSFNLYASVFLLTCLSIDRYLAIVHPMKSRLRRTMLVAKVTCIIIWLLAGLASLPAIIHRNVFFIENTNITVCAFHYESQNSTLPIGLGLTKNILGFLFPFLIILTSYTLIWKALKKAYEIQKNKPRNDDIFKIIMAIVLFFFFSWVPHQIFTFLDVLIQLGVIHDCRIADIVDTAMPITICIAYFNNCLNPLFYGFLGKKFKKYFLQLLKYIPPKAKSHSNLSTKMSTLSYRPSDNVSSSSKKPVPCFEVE
Assay type: cell-based, New Zealand White rabbit
Protocol: The antagonistic activity of the representative compounds of the invention was evaluated using the methodology describe below.
From New Zealand White rabbits (male or female, 2~2.5 kg), aorta was isolated, and fat and connected tissue were removed therefrom. The aorta was cut into 3~4 mm to form ring samples. The aorta sample was suspended in 20 ml of organ bath (37° C.) containing modified Krebs-Henseleit solution saturated with 95% O2 /5% CO2 (pH 7.4).
The aorta preparation was exposed consecutively to 2 g of tensile strength for 90 minutes intermittently washing the sample with 30 minutes interval and then to 30 mM of KCl to observe contraction response. After washing more than three times, the aorta preparation was again allowed to contract three times for stabilization by adding Angiotensin II ([…]) thereto with 30 minutes interval. The third contraction response to Angiotensin II was considered as control.
10 minutes after the third contraction, the test compound was administered to the aorta preparation, which was incubated for 20 minutes.
Comparing angiotensin II contraction curve obtained from the above inhibition test with that of the control, IC50 (concentration being required to inhibit angiotensin II induced contraction by 50%) was determined for each test compound(Table 1).

| Compound | IC50 [nM] |
| --- | --- |
| CCCCc1nc(C)c(CC(=O)N2CCC(Cc3ccccc3)CC2)c(=O)n1Cc1ccc(-c2ccccc2-c2nn[nH]n2)cc1 [Compound 47, 2-n-butyl-5-(4'-benzylpiperidinocarbonylmethyl)-6-methyl-3-[[2'-(1H-tetrazol-5-yl)biphenyl-4-yl]methyl]-pyrimidin-4-(3H) -one] | 128 |
| CCc1nc(=O)c(CC(=O)O)c(C)n1Cc1ccc(-c2ccccc2-c2nnn[nH]2)cc1 [Compound 3, 2-ethyl-5-carboxymethyl-6-methyl-1-[[2'-(1H-tetrazol-5-yl)-biphenyl-4-yl]methyl]-pyrimidin-4-(1H)-one] | 22.3 |
| CCCCc1nc(=O)c(CCCC(=O)O)c(C)n1Cc1ccc(-c2ccccc2-c2nn[nH]n2)cc1 [Compound 31, 2-n-butyl-5-(3'-carboxypropyl)-6-methyl-1-[[2'-(1H-tetrazol-5-yl)biphenyl-4-yl]methyl]-pyrimidin-4-(1H)-one] | 17 |
| CCCCc1nc(C)c(CC(=O)N2CCOCC2)c(=O)n1Cc1ccc(-c2ccccc2-c2nn[nH]n2)cc1 [Compound 73, 2-n-butyl-5-morpholinocarbonylmethyl-6-methyl-3-[[2'-(1H-tetrazol-5-yl)biphenyl-4-yl]methyl]-pyrimidin-4-(3H)-one] | 1.75 |
| CCCCc1nc(C)c(CCC(=O)N2CCCC2)c(=O)n1Cc1ccc(-c2ccccc2-c2nn[nH]n2)cc1 [Compound 58, 2-n-butyl-5-(2'-pyrrolidinocarbonylethyl)-6-methyl-3-[[2'-(1H-tetrazol-5-yl)biphenyl-4-yl]methyl]-pyrimidin-4-(3H)-one] | 5.86 |
| CCCCc1nc(=O)c(CCC(=O)OCC)c(C)n1Cc1ccc(-c2ccccc2-c2nnn[nH]2)cc1 [Compound 24, 2-n-butyl-5-(2'-ethoxycarbonylethyl)-6-methyl-1-[[2'-(1H-tetrazol-5-yl)biphenyl-4-yl]methyl]-pyrimidin-4-(1H)-one] | 169 |
| CCCCc1nc(C)c(CCC(=O)N2CCC(C(N)=O)CC2)c(=O)n1Cc1ccc(-c2ccccc2-c2nn[nH]n2)cc1 [Compound 68, 2-n-butyl-5-[2'-(4"-aminocarbonylpiperidino)carbonylethyl]-6-methyl-3-[[2'-(1H-tetrazol-5-yl)biphenyl-4-yl]methyl]-pyrimidin-4-(3H)-one] | 2.29 |
| CCCCc1nc(C)c(CC(=O)N2CCN(C(C)=O)CC2)c(=O)n1Cc1ccc(-c2ccccc2-c2nn[nH]n2)cc1 [Compound 77, 2-n-butyl-5-(4'-acetylpiperazinocarbonylmethyl)-6-methyl-3-[[2'-(1H-tetrazol-5-yl)biphenyl-4-yl]methyl]-pyrimidin-4-(3H)-one] | 2.17 |
| CCCc1nc(C)c(CCC(=O)OCC)c(=O)n1Cc1ccc(-c2ccccc2-c2nn[nH]n2)cc1 [Compound 13, 2-n-propyl-5-(2'-ethoxycarbonylethyl)-6-methyl-3-[[2'-(1H-tetrazol-5-yl)biphenyl-4-yl]methyl]-pyrimidin-4-(3H)-one] | 4.99 |
| CCCc1nc(C)c(CCC(=O)O)c(=O)n1Cc1ccc(-c2ccccc2-c2nnn[nH]2)cc1 [Compound 14, 2-n-propyl-5-(2'-carboxyethyl)-6-methyl-3-[[2'-(1H-tetrazol-5-yl)-biphenyl-4-yl]methyl]-pyrimidin-4-(3H)-one] | 7.39 |
| CCCCc1nc(C)c(CC(=O)N2CCSCC2)c(=O)n1Cc1ccc(-c2ccccc2-c2nn[nH]n2)cc1 [Compound 75, 2-n-butyl-5-thiomorpholinocarbonylmethyl-6-methyl-3-[[2'-(1H-tetrazol-5-yl)biphenyl-4-yl]methyl]-pyrimidin-4-(3H)-one] | 2.76 |

Now from value to compound:

| IC50 [nM] | Compound |
| --- | --- |
| 2.74 | CCCCc1nc(C)c(CC(=O)N2CCCC2)c(=O)n1Cc1ccc(-c2ccccc2-c2nnn[nH]2)cc1 [Compound 40, 2-n-butyl-5-pyrrolidinocarbonylmethyl-6-methyl-3-[[2'-(1H-tetrazol-5-yl)biphenyl-4-yl]methyl]-pyrimidin-4-(3H)-one] |
| 5.22 | CCCCc1nc(C)c(CCC(=O)N2CCOCC2)c(=O)n1Cc1ccc(-c2ccccc2-c2nn[nH]n2)cc1 [Compound 78, 2-n-butyl-5-(2'-morpholinocarbonylethyl)-6-methyl-3-[[2'-(1H-tetrazol-5-yl)biphenyl-4-yl]methyl]-pyrimidin-4-(3H)-one] |
| 16.8 | CCCCc1nc(C)c(CCC(=O)N2CCCCCCC2)c(=O)n1Cc1ccc(-c2ccccc2-c2nn[nH]n2)cc1 [Compound 71, 2-n-butyl-5-(2'-heptamethyleneiminocarbonylethyl)-6-methyl-3-[[2'-(1 H-tetrazol-5-yl)biphenyl-4-yl]methyl]-pyrimidin-4-(3H)-one] |
| 19.4 | CCCc1nc(=O)c(CCC(=O)O)c(C)n1Cc1ccc(-c2ccccc2-c2nn[nH]n2)cc1 [Compound 15, 2-n-propyl-5-(2'-carboxyethyl)-6-methyl-1-[[2'-(1H-tetrazol-5-yl)-biphenyl-4-yl]methyl]-pyrimidin-4-(1H)-one] |
| 5.99 | CCCCc1nc(C)c(CC(=O)N2CCC(C(=O)OCC)CC2)c(=O)n1Cc1ccc(-c2ccccc2-c2nn[nH]n2)cc1 [Compound 51, 2-n-butyl-5-(4'-ethoxycarbonylpiperidinocarbonylmethyl)-6-methyl-3-[[2'-(1H-tetrazol-5-yl)biphenyl-4-yl]methyl]-pyrimidin-4-(3H)-one] |
| 22.7 | CCc1nc(C)c(CCC(=O)O)c(=O)n1Cc1ccc(-c2ccccc2-c2nnn[nH]2)cc1 [Compound 6, 2-ethyl-5-(2'-carboxyethyl)-6-methyl-3-[[2'-(1H-tetrazol-5-yl)-biphenyl-4-yl]methyl]-pyrimidin-4-(3H)-one] |
| 2.46 | CCCCc1nc(C)c(CC(=O)N2CCCCC2)c(=O)n1Cc1ccc(-c2ccccc2-c2nn[nH]n2)cc1 [Compound 45, 2-n-butyl-5-piperidinocarbonylmethyl-6-methyl-3-[[2'-(1H-tetrazol-5-yl)biphenyl-4-yl]methyl]-pyrimidin-4-(3H)-one] |
| 2.84 | CCc1nc(=O)c(CCC(=O)O)c(C)n1Cc1ccc(-c2ccccc2-c2nnn[nH]2)cc1 [Compound 7, 2-ethyl-5-(2'-carboxyethyl)-6-methyl-1-[[2'-(1H-tetrazol-5-yl)-biphenyl-4-yl]methyl]-pyrimidin-4-(1H)-one] |
| 11.6 | CCCCc1nc(C)c(CCC(=O)N2CCCCCC2)c(=O)n1Cc1ccc(-c2ccccc2-c2nn[nH]n2)cc1 [Compound 70, 2-n-butyl-5-(2'-hexamethyleneiminocarbonylethyl)-6-methyl-3-[[2'-(1H-tetrazol-5-yl)biphenyl-4-yl]methyl]-pyrimidin-4-(3H)-one] |
| 2.63 | CCCCc1nc(C)c(CC(=O)N(CC)CC)c(=O)n1Cc1ccc(-c2ccccc2-c2nnn[nH]2)cc1 [Compound 21, 2-n-butyl-5-diethylaminocarbonylmethyl-6-methyl-3-[[2'-(1H-tetrazol-5-yl)biphenyl-4-yl]methyl]-pyrimidin-4-(3H)-one] |
| 2.88 | CCCCc1nc(C)c(CCC(=O)N2CCC[C@H]2C(N)=O)c(=O)n1Cc1ccc(-c2ccccc2-c2nn[nH]n2)cc1 [Compound 60, 2-n-butyl-5-[2'-((S)-2"-aminocarbonylpyrrolidino)carbonylethyl]-6-methyl-3-[[2'-(1H-tetrazol-5-yl)biphenyl-4-yl]methyl]-pyrimidin-4-(3H)-one] |
| 2.2 | CCCCc1nc(C)c(CC(=O)N2CCC(C(N)=O)CC2)c(=O)n1Cc1ccc(-c2ccccc2-c2nn[nH]n2)cc1 [Compound 54, 2-n-butyl-5-(4'-aminocarbonylpiperidinocarbonylmethyl)-6-methyl-3-[[2'-(1H-tetrazol-5-yl)biphenyl-4-yl]methyl]-pyrimidin-4-(3H)-one] |
| 1.03 | CCCCc1nc(C)c(CC(=O)N2C(C)COCC2C)c(=O)n1Cc1ccc(-c2ccccc2-c2nn[nH]n2)cc1 (centres unmarked) [Compound 74, 2-n-butyl-5-(3',5'-dimethylmorpholinocarbonylmethyl)-6-methyl-3-[[2'-(1H-tetrazol-5-yl)biphenyl-4-yl]methyl]-pyrimidin-4-(3H)-one] |

Same assay, conditions: test compound incubated 20 minutes, value given in M, read-out: IC50 (concentration being required to inhibit angiotensin II induced contraction by 50%)

| IC50 [nM] | Compound |
| --- | --- |
| > 10000 | CCCCc1nc(C)c(CCC(=O)N2CCC(C)CC2)c(=O)n1Cc1ccc(-c2ccccc2-c2nn[nH]n2)cc1 [Compound 64, 2-n-butyl-5-[2'-(4"-methylpiperidino)carbonylethyl]-6-methyl-3-[[2'-(1H-tetrazol-5-yl)biphenyl-4-yl]methyl]-pyrimidin-4-(3H)-one] |
| > 10000 | CCCCc1nc(C)c(CC(=O)N2CCC(C)CC2)c(=O)n1Cc1ccc(-c2ccccc2-c2nn[nH]n2)cc1 [Compound 48, 2-n-butyl-5-(4'-methylpiperidinocarbonylmethyl)-6-methyl-3-[[2'-(1H-tetrazol-5-yl)biphenyl-4-yl]methyl]-pyrimidin-4-(3H)-one] |
